Results published in patent US20230218710A1, “METHOD OF TREATING CORONAVIRUS INFECTIONS” (priority 2020, published 2023).
Counter-ions that a name gives are not always drawn. Square brackets hold non-standard residues; d marks the D form. Peptide text beside a SMILES is read from it. * marks the point of attachment. CH3O(CH2CH2O)11CH2CH2CO = COCCOCCOCCOCCOCCOCCOCCOCCOCCOCCOCCOCCC(=O)*

Tests used:
[1] = target: T1, Apelin Receptor (APJ) (Homo sapiens, UniProt P35414); test: Activation of Ras in cultured cells overexpressing APJ; format: cell-based; conditions: 50 μM peptide, 1 min; 100 nM Pyr-Apelin-13 = positive control
T1 construct: host or cells: CHO-K1 AGTRL1 Gi cells
T1 sequence (P35414 1-380): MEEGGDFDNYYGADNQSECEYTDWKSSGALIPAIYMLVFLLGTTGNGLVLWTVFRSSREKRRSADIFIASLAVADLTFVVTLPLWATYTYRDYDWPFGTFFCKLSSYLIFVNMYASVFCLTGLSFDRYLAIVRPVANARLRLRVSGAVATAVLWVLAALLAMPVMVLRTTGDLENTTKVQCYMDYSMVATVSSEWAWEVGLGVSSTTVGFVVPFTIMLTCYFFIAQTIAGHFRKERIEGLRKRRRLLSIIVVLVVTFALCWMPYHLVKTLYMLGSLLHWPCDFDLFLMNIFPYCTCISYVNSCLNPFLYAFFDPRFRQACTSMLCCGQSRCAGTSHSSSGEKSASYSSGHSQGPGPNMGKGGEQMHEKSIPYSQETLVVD
Description: Peptides were initially prepared as 100× stocks in H2O. […] Following a 1 min incubation, the cells were placed on ice, the supernatant was removed, and washed twice with cold HBSS. The HBSS was removed and the cells were immediately lysed in 150 μl/well of lysis buffer included with Active Ras Detection kit (Cell Signaling Technology; Danvers, Mass.); lysis buffer was supplemented with 1 mM PMSF (Millipore-Sigma; Saint Louis, Mo.) and Halt Protease/Phosphatase Inhibitor Cocktail (Thermo-Fisher; Waltham, Mass.) prior to use. The wells were immediately scraped and lysates transferred to microfuge tubes. The samples were then placed on ice for 10 min. […] Visualization and quantification of Ras recovery (GTP-bound/active Ras) in samples were performed with Azure Biosystems C400 Imager and AzureSpot analysis software (Dublin, Calif.). […] Each data point represents the average of duplicate assays.

[2] = in vitro; conditions: human, pooled human plasma
Description: The metabolic stability of the peptides can be assessed in vitro by incubation in plasma and determination of the amount of peptide remaining over time. Peptides (50 μM) were incubated in pooled plasma from mice, monkeys, and humans at 37° C. Samples were removed at intervals up to 3 hours and immediately analyzed for the concentration of intact peptide by LC/MS/MS. The percent of peptide remaining in plasma at each time point was calculated relative to the initial peak area.

[3] = target: human APJ (Homo sapiens, UniProt P35414); test: cell-based; conditions: CHO-K1, 1.5 h, read-out: Percent of Apelin-13 Control Activity
Description: The effect of the peptides on activation of Apelin Receptor (APJ) can be assessed using an assay to monitor β-Arrestin recruitment in cultured cells overexpressing APJ such as CHO-K1, derived from Chinese hamster ovary. β-Arrestin recruitment assays were performed by Eurofins-DiscoverX (Fremont, Calif.) using CHO-K1 AGTRL1 β-Arrestin cell line (co-expressing ProLink tagged human APJ and Enzyme Acceptor tagged β-Arrestin) and PathHunter detection kit. Peptides were initially prepared either as 10 mM stock in DMSO and used at a final concentration of 10 μM (0.1% DMSO). CHO-K1 AGTRL1 β-Arrestin cells were seed onto 384-well plates in standard medium. […] Following 90 min. incubation at 37° C., β-Arrestin recruitment in response to various treatments was quantified using a chemiluminescent complementation reporter assay to measure association of tagged human APJ (ProLink tag) and tagged β-Arrestin (Enzyme Acceptor tag).

[4] = target: T1, Apelin Receptor (APJ); test: cell-based; conditions: CHO-K1, 0.5 h, read-out: Percent of Pyr-Apelin-13 Control Activity
Description: Peptides were initially prepared as 30 mM stock in DMSO and diluted to 3 mM in H2O or directly as 3 mM stock in H2O; used at a final concentration of 10 μM (0-0.1% DMSO).

[5] = target: T1, Apelin Receptor (APJ); test: Phosphorylation of ERK1/2 in cultured cells overexpressing APJ; format: cell-based; conditions: 5 min, 100 nM Pyr-Apelin-13 = positive control, acetate salts
Description: The effect of the peptides of the current invention on activation of Apelin Receptor (APJ)-mediated signaling can be assessed using an assay to monitor phospho-ERK/phospho-p44/42 MAPK (p-ERK1/2) levels in cultured cells overexpressing Apelin Receptor (APJ) such as CHO-K1, derived from Chinese hamster ovary. Peptides were initially prepared as 100× stocks in H2O. […] Following a 5 min incubation the supernatant was removed and the cells were placed on ice and washed twice with cold HBSS. The HBSS was removed and the cells were immediately lysed in 300 μl/well of 1× lysis buffer (CST 10× Lysis Buffer; Cell Signaling Technology; Danvers, Mass.); lysis buffer was supplemented with 1 mM PMSF (Millipore-Sigma; Saint Louis, Mo.) and Halt Protease/Phosphatase Inhibitor Cocktail (Thermo-Fisher; Waltham, Mass.) prior to use. The samples were then placed on ice for 10 min, wells were scraped and lysates transferred to microfuge tubes. The samples were centrifuged at 12,500 rpm for 10 min at 4° C. and p-ERK1/2 expression in each sample was measured using Phospho-p44/42 MAPK (Thr202/Tyr204) Sandwich ELISA kit according to manufacturer's instructions (Cell Signaling Technology; Danvers, Mass.). Absorbance was measured using a Cytation 3 plate reader at […] (BioTek; Winooski, Vt.). […] Each data point represents the average of duplicate assays.

[6] = target: T1, Apelin Receptor (APJ); test: Phosphorylation of MEK1 in cultured cells overexpressing APJ; format: cell-based; conditions: 5 min, 100 nM Pyr-Apelin-13 = positive control, acetate salts
Description: Peptides were initially prepared as 100× stocks in H2O. […] Following a 5 min incubation, the supernatant was removed and the cells were placed on ice and washed twice with cold HBSS. The HBSS was removed and the cells were immediately lysed in 300 μl/well of 1× lysis buffer (CST 10× Lysis Buffer; Cell Signaling Technology; Danvers, Mass.); lysis buffer was supplemented with 1 mM PMSF (Millipore-Sigma; Saint Louis, Mo.) and Halt Protease/Phosphatase Inhibitor Cocktail (Thermo-Fisher; Waltham, Mass.) prior to use. The samples were then placed on ice for 10 min, the wells were scraped and lysates were centrifuged at 12,500 rpm for 10 min at 4° C., and p-MEK expression in each sample was measured using Phospho-MEK1 (Ser217/221) Sandwich ELISA kit according to manufacturer's instructions (Cell Signaling Technology; Danvers, Mass.). Absorbance was measured using a Cytation 3 plate reader at […] (BioTek; Winooski, Vt.). […] Each data point represents the average of duplicate assays.

Chain of human APJ (P32121 whole entry partner, one chain of several): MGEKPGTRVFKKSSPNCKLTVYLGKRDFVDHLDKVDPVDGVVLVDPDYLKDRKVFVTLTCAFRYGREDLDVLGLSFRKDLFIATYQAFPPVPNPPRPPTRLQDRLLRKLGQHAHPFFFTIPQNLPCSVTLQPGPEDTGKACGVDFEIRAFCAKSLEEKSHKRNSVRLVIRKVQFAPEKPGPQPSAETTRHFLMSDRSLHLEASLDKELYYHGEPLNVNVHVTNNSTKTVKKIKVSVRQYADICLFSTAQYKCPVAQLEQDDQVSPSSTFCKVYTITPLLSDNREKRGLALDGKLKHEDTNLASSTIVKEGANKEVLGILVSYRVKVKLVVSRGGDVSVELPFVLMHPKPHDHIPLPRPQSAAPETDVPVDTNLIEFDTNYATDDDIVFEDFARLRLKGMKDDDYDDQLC

Molecule | remaining at 0.5 h, 50 μM [2] [%] | Emax at 10 µM [3] [%] | Emax at 10 µM [4] [%] | further results
CSCC[C@H](NC(=O)CNC(=O)[C@H](CCSC)NC(=O)[C@H](CCSC)NC(=O)[C@H](CCCNC(=N)N)NC(=O)[C@@H](N)CCCNC(=N)N)C(=O)N[C@H](C(=O)N[C@@H](Cc1ccccc1)C(=O)N[C@@H](CCC(N)=O)C(=O)N[C@@H](CO)C(=O)N[C@@H](CC(C)C)C(=O)N[C@@H](CS)C(=O)NCC(=O)N[C@H](C)C(=O)O)C(C)C [SEQ ID NO: 15 Acetate salt] | – | – | – | GTP-Ras (% of Positive Control) [1]: 64.9%
CSCC[C@H](NC(=O)CNC(=O)[C@H](CCSC)NC(=O)[C@H](CCSC)NC(=O)[C@H](CCCNC(=N)N)NC(=O)[C@@H](N)CCCNC(=N)N)C(=O)N[C@H](C(=O)N[C@@H](Cc1ccccc1)C(=O)N[C@@H](CCC(N)=O)C(=O)N[C@@H](CO)C(=O)N[C@@H](CC(C)C)C(=O)N[C@@H](CS)C(=O)NCC(=O)N[C@H](C)C(=O)O)C(C)C [compound 15] | 24.3 | 40 | 105 | –
CSCC[C@H](NC(=O)CNC(=O)[C@H](CCSC)NC(=O)[C@H](CCSC)NC(=O)[C@H](CCCNC(=N)N)NC(=O)[C@@H](N)CCCNC(=N)N)C(=O)N[C@H](C(=O)N[C@@H](C)C(=O)N[C@@H](CCC(N)=O)C(=O)N[C@@H](CS)C(=O)N[C@@H](CC(C)C)C(=O)N[C@@H](CS)C(=O)NCC(=O)N[C@H](C)C(=O)O)C(C)C [compound 11] | 97.9 | 0 | 49 | –
(PEG12)KRRLLGLVFQSLCG(dA) [SEQ ID NO: 37 HCl salt] (KRRLLGLVFQSLCGA; N-terminal PEG12, C-terminal D-Ala, HCl salt; (1)..(1) PEG12; (15)..(15) D-Ala) | – | – | – | GTP-Ras (% of Positive Control) [1]: 33.2%
(PEG12)KRRLLGLVFQSLCG(dA) [SEQ ID NO: 37 Acetate salt] (KRRLLGLVFQSLCGA; N-terminal PEG12, C-terminal D-Ala, acetate salt; (1)..(1) PEG12; (15)..(15) D-Ala) | – | – | – | GTP-Ras (% of Positive Control) [1]: 79.2%
CC[C@H](C)[C@H](NC(=O)CNC(=O)[C@@H](NC(=O)[C@@H](NC(=O)[C@H](CCCNC(=N)N)NC(=O)[C@H](CCCNC(=N)N)NC(=O)[C@H](CCCCN)NC(=O)CCOCCOCCOCCOCCOCCOCCOCCOCCOCCOCCOCCOC)[C@@H](C)CC)[C@@H](C)CC)C(=O)N[C@H](C(=O)N[C@@H](Cc1ccccc1)C(=O)N[C@@H](CCC(N)=O)C(=O)N[C@@H](CS)C(=O)N[C@@H](CC(C)C)C(=O)N[C@@H](CS)C(=O)NCC(=O)N[C@H](C)C(=O)O)C(C)C [compound 42] ({CH3O(CH2CH2O)11CH2CH2CO}-KRRIIGIVFQCLCG[dA]-OH; N-terminus and C-terminus assumed) | – | 8 | 33 | –
COCCOCCOCCOCCOCCOCCOCCOCCOCCOCCOCCOCCC(=O)NCCCC[C@H](NC(=O)[C@@H](C)NC(=O)CNC(=O)[C@H](CS)NC(=O)[C@H](CC(C)C)NC(=O)[C@H](CS)NC(=O)[C@H](CCC(N)=O)NC(=O)[C@H](Cc1ccccc1)NC(=O)[C@@H](NC(=O)[C@H](CCSC)NC(=O)CNC(=O)[C@H](CCSC)NC(=O)[C@H](CCSC)NC(=O)[C@H](CCCNC(=N)N)NC(=O)[C@@H](N)CCCNC(=N)N)C(C)C)C(=O)O [compound 21] | 29.5 | 1 | 34 | –
CSCC[C@H](NC(=O)CNC(=O)[C@H](CCSC)NC(=O)[C@H](CCSC)NC(=O)[C@H](CCCNC(=N)N)NC(=O)[C@@H](N)CCCNC(=N)N)C(=O)N[C@H](C(=O)N[C@@H](Cc1ccccc1)C(=O)N[C@@H](CCC(N)=O)C(=O)N[C@@H](CO)C(=O)N[C@@H](CC(C)C)C(=O)N[C@@H](CS)C(=O)NCC(=O)N[C@H](C)C(=O)O)C(C)C [SEQ ID NO: 15] | – | – | – | pERK1/2 (% of Positive Control) ([5]; 0.4 μM peptide): 1.9%; pERK1/2 (% of Positive Control) ([5]; 2.0 μM peptide): 15.4%; pERK1/2 (% of Positive Control) ([5]; 10 μM peptide): 44.4%; pERK1/2 (% of Positive Control) ([5]; 50 μM peptide): 69.7%; pMEK1 (% of Positive Control) ([6]; 2.0 μM peptide): 2.5%; pMEK1 (% of Positive Control) ([6]; 10 μM peptide): 14.3%; pMEK1 (% of Positive Control) ([6]; 50 μM peptide): 52.7%
CSCC[C@H](NC(=O)CNC(=O)[C@H](CCSC)NC(=O)[C@H](CCSC)NC(=O)[C@H](CCCNC(=N)N)NC(=O)[C@@H](N)CCCNC(=N)N)C(=O)N[C@H](C(=O)N[C@@H](C)C(=O)N[C@@H](CCC(N)=O)C(=O)N[C@@H](CS)C(=O)N[C@@H](CC(C)C)C(=O)N[C@@H](CCC(=O)O)C(=O)NCC(=O)N[C@H](C)C(=O)O)C(C)C [compound 30] (H-RRMMGMVAQCLEG[dA]-OH; N-terminus and C-terminus assumed) | 14.9 | -1 | 31 | –
CSCC[C@H](NC(=O)[C@H](CCCNC(=N)N)NC(=O)[C@@H](N)CCCNC(=N)N)C(=O)N[C@@H](CCC(=O)O)C(=O)N[C@H](C(=O)N[C@@H](Cc1ccc(O)cc1)C(=O)N[C@@H](CCC(N)=O)C(=O)N[C@@H](CS)C(=O)N[C@@H](CC(C)C)C(=O)N[C@@H](CS)C(=O)NCC(=O)N[C@H](C)C(=O)O)C(C)C [compound 31] (H-RRMEVYQCLCG[dA]-OH; N-terminus and C-terminus assumed) | 100 | 0 | 2 | –
COCCOCCOCCOCCOCCOCCOCCOCCOCCOCCOCCOCCC(=O)N[C@@H](CCCCN)C(=O)N[C@@H](CCCNC(=N)N)C(=O)N[C@@H](CCCNC(=N)N)C(=O)N[C@@H](CCSC)C(=O)N[C@@H](CCSC)C(=O)NCC(=O)N[C@@H](CCSC)C(=O)N[C@H](C(=O)N[C@@H](Cc1ccccc1)C(=O)N[C@@H](CCC(N)=O)C(=O)N[C@@H](CS)C(=O)N[C@@H](CC(C)C)C(=O)N[C@@H](CS)C(=O)NCC(=O)N[C@H](C)C(=O)O)C(C)C [compound 20] | 75.3 | 1 | 37 | –
